Experimental data: publication PMC6001238, “Iterative Chemical Engineering of Vancomycin Leads to Novel Vancomycin Analogs With a High in Vitro Therapeutic Index” (Frontiers in Microbiology, 2018)
Converted amounts (≈) assume the structure as drawn. Read-outs that look alike come from different tables or passages of the source.

Tests used:
E. faecalis VSE 1 = experiment: MIC, broth microdilution, vancomycin-sensitive E. faecalis (VSE 1); assay type: cell-based, Enterococcus faecalis; conditions: for MIC: Enterococcus faecalis VSE 1 (vancomycin-sensitive), read-out: MIC; for MIC-fold improvement vs. vancomycin: VSE 1, ratio of MIC of vancomycin and MIC of analogue
Method in brief: (§1)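 MIC values come from broth microdilution run to CLSI susceptibility-testing standards. Ultrapure water and uninoculated broth served as controls. In one series, vancomycin at a final 10 μM was co-dosed with the analogue or comparator antibiotic.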

E. faecalis VRE 6 = experiment: MIC, broth microdilution, vancomycin-resistant E. faecalis VRE 6 (VanA); assay type: cell-based, Enterococcus faecalis; conditions: for MIC: Enterococcus faecalis VRE 6 (vancomycin-resistant), read-out: MIC; for MIC-fold improvement vs. vancomycin: VRE 6, ratio of MIC of vancomycin and MIC of analogue
Method in brief: as §1

E. faecalis VRE 53 = experiment: MIC, broth microdilution, vancomycin-resistant E. faecalis VRE 53 (VanA); assay type: cell-based, Enterococcus faecalis; conditions: for MIC: Enterococcus faecalis VRE 53 (vancomycin-resistant), read-out: MIC; for MIC-fold improvement vs. vancomycin: VRE 53, ratio of MIC of vancomycin and MIC of analogue
Method in brief: as §1

E. faecalis VRE 29 = experiment: MIC, broth microdilution, vancomycin-resistant E. faecalis VRE 29 (VanA); assay type: cell-based, Enterococcus faecalis; conditions: for MIC: Enterococcus faecalis VRE 29 (vancomycin-resistant), read-out: MIC; for MIC-fold improvement vs. vancomycin: VRE 29, ratio of MIC of vancomycin and MIC of analogue
Method in brief: as §1

E. faecalis VRE 37 = experiment: MIC, broth microdilution, vancomycin-resistant E. faecalis VRE 37 (VanA); assay type: cell-based, Enterococcus faecalis; conditions: for MIC: Enterococcus faecalis VRE 37 (vancomycin-resistant), read-out: MIC; for MIC-fold improvement vs. vancomycin: VRE 37, ratio of MIC of vancomycin and MIC of analogue
Method in brief: as §1

[1] = tested on: Murine leukemia (L1210) cells; experiment: Cytostatic activity, L1210 cell proliferation; assay type: cell-based; conditions: mean ± SD of three experiments; highest concentration tested 250 µM; 2 days; read-out: Toxicity (IC50) L1210
Method in brief: (§2)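 Coulter counter cell counts after 37°C culture with compound; IC50 = concentration giving 50% growth inhibition vs negative control. Incubation: L1210 2 d, CEM 3 d, HeLa 4 d. Suspension density before mixing with an equal volume of dilution: 300,000–500,000 cells/mL.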

[2] = tested on: human T-lymphocyte (CEM) cells; experiment: Cytostatic activity, CEM cell proliferation; assay type: cell-based; conditions: mean ± SD of three experiments; highest concentration tested 250 µM; 3 days; read-out: Toxicity (IC50) CEM
Method in brief: as §2

[3] = tested on: human cervix carcinoma (HeLa) cells; experiment: Cytostatic activity, HeLa cell proliferation; assay type: cell-based; conditions: mean ± SD of three experiments; highest concentration tested 250 µM; 4 days; read-out: Toxicity (IC50) HeLa
Method in brief: as §2

[4] = tested on: L1210, CEM and HeLa cell lines; experiment: Cytostatic activity, average or summary over L1210, CEM and HeLa; assay type: cell-based; conditions: average of L1210, CEM and HeLa; read-out: Toxicity (IC50) Average
Method in brief: as §2

[5] = tested on: S. aureus VSSA (ATCC 6538); experiment: MIC, broth microdilution, vancomycin-sensitive S. aureus (VSSA/MSSA, ATCC 6538); assay type: cell-based, Staphylococcus aureus; conditions: for MIC: Staphylococcus aureus VSSA, read-out: MIC; for MIC-fold improvement vs. vancomycin: VSSA, ratio of MIC of vancomycin and MIC of analogue
Method in brief: as §1

S. aureus VISA/HIP5827 = experiment: MIC, broth microdilution, vancomycin-intermediate S. aureus VISA HIP5827; assay type: cell-based, Staphylococcus aureus; conditions: for MIC: Staphylococcus aureus VISA/HIP5827, read-out: MIC; for MIC-fold improvement vs. vancomycin: VISA/HIP5827, ratio of MIC of vancomycin and MIC of analogue
Method in brief: as §1

S. aureus VRSA = experiment: MIC, broth microdilution, vancomycin-resistant S. aureus (VRSA); assay type: cell-based, Staphylococcus aureus; conditions: for MIC: Staphylococcus aureus VRSA, read-out: MIC; for MIC-fold improvement vs. vancomycin: VRSA, ratio of MIC of vancomycin and MIC of analogue
Method in brief: as §1

MRSA KS2 = experiment: MIC, broth microdilution, MRSA KS2; assay type: cell-based, Staphylococcus aureus; conditions: for MIC-fold improvement vs. vancomycin: MRSA KS2, ratio of MIC of vancomycin and MIC of analogue; for MIC: Staphylococcus aureus MRSA KS2, read-out: MIC
Method in brief: as §1

MRSA KS6 = experiment: MIC, broth microdilution, MRSA KS6; assay type: cell-based, Staphylococcus aureus; conditions: for MIC-fold improvement vs. vancomycin: MRSA KS6, ratio of MIC of vancomycin and MIC of analogue; for MIC: Staphylococcus aureus MRSA KS6, read-out: MIC
Method in brief: as §1

MRSA KS89 = experiment: MIC, broth microdilution, MRSA KS89; assay type: cell-based, Staphylococcus aureus; conditions: for MIC-fold improvement vs. vancomycin: ratio of MIC of vancomycin and MIC of analogue; for MIC: read-out: MIC
Method in brief: as §1

MRSA KS1 = experiment: MIC, broth microdilution, MRSA KS1; assay type: cell-based, Staphylococcus aureus; conditions: for MIC-fold improvement vs. vancomycin: MRSA KS1, ratio of MIC of vancomycin and MIC of analogue; for MIC: Staphylococcus aureus MRSA KS1, read-out: MIC
Method in brief: as §1

Row | SMILES | MIC (E. faecalis VSE 1) [µM] | MIC-fold improvement vs. vancomycin (E. faecalis VSE 1) | MIC (E. faecalis VRE 6) [µM] | MIC-fold improvement vs. vancomycin (E. faecalis VRE 6) | MIC (E. faecalis VRE 53) [µM] | MIC-fold improvement vs. vancomycin (E. faecalis VRE 53) | MIC (E. faecalis VRE 29) [µM] | MIC-fold improvement vs. vancomycin (E. faecalis VRE 29) | MIC (E. faecalis VRE 37) [µM] | MIC-fold improvement vs. vancomycin (E. faecalis VRE 37) | IC50 [1] [µM] | IC50 [2] [µM] | IC50 [3] [µM] | IC50 [4] [µM] | MIC [5] [µM] | MIC-fold improvement vs. vancomycin [5] | MIC (S. aureus VISA/HIP5827) [µM] | MIC-fold improvement vs. vancomycin (S. aureus VISA/HIP5827) | MIC (S. aureus VRSA) [µM] | MIC-fold improvement vs. vancomycin (S. aureus VRSA) | also measured
1 | CCCCCc1ccc(NC(=O)CNC(=O)[C@H]2NC(=O)[C@H]3NC(=O)[C@H](NC(=O)[C@@H]4NC(=O)[C@H](CC(N)=O)NC(=O)[C@H](NC(=O)[C@@H](CC(C)C)NC)[C@H](O)c5ccc(c(Cl)c5)Oc5cc4cc(c5O[C@@H]4O[C@H](CO)[C@@H](O)[C@H](O)[C@H]4O[C@H]4C[C@](C)(N)[C@H](O)[C@H](C)O4)Oc4ccc(cc4Cl)[C@H]3O)c3ccc(O)c(c3)-c3c(O)cc(O)cc32)cc1 [Vanc-74] | 0.39 (≈ 0.644 µg/mL) | 4 | 1.56 (≈ 2.58 µg/mL) | 128 | 6.25 (≈ 10.3 µg/mL) | 64 | 12.5 (≈ 20.6 µg/mL) | 32 | 6.25 (≈ 10.3 µg/mL) | 64 | ≥ 250 | 78 ± 20 | 102 ± 46 | 143 | 0.39 (≈ 0.644 µg/mL) | 2 | 0.78 (≈ 1.29 µg/mL) | 8 | 1.56 (≈ 2.58 µg/mL) | 64 | MIC-fold improvement vs. vancomycin (MRSA KS2): 4; MIC (MRSA KS2): 0.20 µM (≈ 0.33 µg/mL); MIC-fold improvement vs. vancomycin (MRSA KS6): 4; MIC (MRSA KS6): 0.20 µM (≈ 0.33 µg/mL); MIC-fold improvement vs. vancomycin (MRSA KS89; MRSA KS8): 4; MIC (MRSA KS89; Staphylococcus aureus MRSA KS8): 0.20 µM (≈ 0.33 µg/mL); MIC-fold improvement vs. vancomycin (MRSA KS1): 1; MIC (MRSA KS1): 0.78 µM (≈ 1.29 µg/mL)
2 | CN[C@H](CC(C)C)C(=O)N[C@H]1C(=O)N[C@@H](CC(N)=O)C(=O)N[C@H]2C(=O)N[C@H]3C(=O)N[C@H](C(=O)N[C@H](C(=O)NCC(=O)Nc4ccc(C#Cc5ccccc5)cc4)c4cc(O)cc(O)c4-c4cc3ccc4O)[C@H](O)c3ccc(c(Cl)c3)Oc3cc2cc(c3O[C@@H]2O[C@H](CO)[C@@H](O)[C@H](O)[C@H]2O[C@H]2C[C@](C)(N)[C@H](O)[C@H](C)O2)Oc2ccc(cc2Cl)[C@H]1O [Vanc-38] | 0.20 (≈ 0.336 µg/mL) | 8 | 0.39 (≈ 0.656 µg/mL) | 513 | 3.13 (≈ 5.26 µg/mL) | 128 | 1.56 (≈ 2.62 µg/mL) | 256 | 3.13 (≈ 5.26 µg/mL) | 128 | 8 ± 3.1 | 4.4 ± 0.5 | 24 ± 1 | 12 | 0.05 (≈ 0.0841 µg/mL) | 16 | 0.05 (≈ 0.0841 µg/mL) | 128 | 0.78 (≈ 1.31 µg/mL) | 128 | MIC-fold improvement vs. vancomycin (MRSA KS2): 4; MIC (MRSA KS2): 0.20 µM (≈ 0.336 µg/mL); MIC-fold improvement vs. vancomycin (MRSA KS6): 4; MIC (MRSA KS6): 0.20 µM (≈ 0.336 µg/mL); MIC-fold improvement vs. vancomycin (MRSA KS89; MRSA KS8): 4; MIC (MRSA KS89; Staphylococcus aureus MRSA KS8): 0.20 µM (≈ 0.336 µg/mL); MIC-fold improvement vs. vancomycin (MRSA KS1): 4; MIC (MRSA KS1): 0.20 µM (≈ 0.336 µg/mL)
3 | CCCCCn1cc(-c2ccc(NC(=O)CNC(=O)C3NC(=O)C4NC(=O)C(NC(=O)C5NC(=O)C(CC(N)=O)NC(=O)C(NC(=O)C(CC(C)C)NC)C(O)c6ccc(c(Cl)c6)Oc6cc5cc(c6OC5OC(CO)C(O)C(O)C5OC5CC(C)(N)C(O)C(C)O5)Oc5ccc(cc5Cl)C4O)c4ccc(O)c(c4)-c4c(O)cc(O)cc43)cc2)nn1 (stereo not drawn) [Vanc-91] | ≤0.05 | ≥32 | 1.56 (≈ 2.68 µg/mL) | 128 | 25 (≈ 43 µg/mL) | 16 | 6.25 (≈ 10.7 µg/mL) | 64 | 6.25 (≈ 10.7 µg/mL) | 64 | 154 ± 93 | 107 ± 25 | 147 ± 11 | 136 | 0.10 (≈ 0.172 µg/mL) | 8 | 0.39 (≈ 0.67 µg/mL) | 16 | 0.39 (≈ 0.67 µg/mL) | 256 | MIC-fold improvement vs. vancomycin (MRSA KS2): 8; MIC (MRSA KS2): 0.10 µM (≈ 0.172 µg/mL); MIC-fold improvement vs. vancomycin (MRSA KS6): 8; MIC (MRSA KS6): 0.10 µM (≈ 0.172 µg/mL); MIC-fold improvement vs. vancomycin (MRSA KS89; MRSA KS8 (head; KS89 in title)): 4; MIC (MRSA KS89; Staphylococcus aureus MRSA KS8 (head; KS89 in title)): 0.20 µM (≈ 0.344 µg/mL); MIC-fold improvement vs. vancomycin (MRSA KS1): 8; MIC (MRSA KS1): 0.10 µM (≈ 0.172 µg/mL)
